Where a name gives a salt, the structure may show the parent alone.
Test system: HIV-1 NL4-3 strain
Test: Evaluation of antiviral activity: acute infection system of MT-4 cell with HIV-1 NL4-3 strain
Type: cell-based
Conditions: Human immunodeficiency virus 1, NL43, MT4, 120 h, MT-4 cells infected with HIV-1 NL4-3 strain (MOI 0.05), cultured 5 days, Cell Titer-Glo; read-out: antiviral activity (EC50)

Row | SMILES | EC50
1 | CCN1C(=O)c2c(O)c(=O)c(C(=O)NCc3cccc(Cl)c3F)cn2C[C@]12C[C@@H](COC)C2 [Example S59, N-(3-chloro-2-fluorobenzyl)-2′-ethyl-9′-hydroxy-trans-3-(methoxymethyl)-1′,8′-dioxo-1′,2′,4′,8′-tetrahydrospiro[cyclobutane-1,3′-pyrido[1,2-a]pyrazine]-7′-carboxamide hydrochloride] | 4 nM
2 | CCN1C(=O)c2c(O)c(=O)c(C(=O)NCc3cccc(Cl)c3F)cn2C[C@]12C[C@H](CO)C2 [Example S60, N-(3-chloro-2-fluorobenzyl)-2′-ethyl-9′-hydroxy-cis-3-(hydroxymethyl)-1′,8′-dioxo-1′,2′,4′,8′-tetrahydrospiro[cyclobutane-1,3′-pyrido[1,2-a]pyrazine]-7′-carboxamide hydrochloride] | 13 nM
3 | CCN1C(=O)c2c(O)c(=O)c(C(=O)NCc3cccc(Cl)c3F)cn2C[C@]12C[C@H](COC)C2 [Example S61, N-(3-chloro-2-fluorobenzyl)-2′-ethyl-9′-hydroxy-cis-3-(methoxymethyl)-1′,8′-dioxo-1′,2′,4′,8′-tetrahydrospiro[cyclobutane-1,3′-pyrido[1,2-a]pyrazine]-7′-carboxamide hydrochloride] | 5.1 nM
4 | CO[C@H]1C[C@@]2(Cn3cc(C(=O)NCc4cccc(Cl)c4F)c(=O)c(O)c3C(=O)N2C)C1 [Example S62, N-(3-chloro-2-fluorobenzyl)-9′-hydroxy-trans-3-methoxy-2′-methyl-1′,8′-dioxo-1′,2′,4′,8′-tetrahydrospiro[cyclobutane-1,3′-pyrido[1,2-a]pyrazine]-7′-carboxamide hydrochloride] | 4.6 nM
5 | CO[C@H]1C[C@]2(CN(C)C(=O)c3c(OC(C)=O)c(=O)c(C(=O)NCc4cccc(Cl)c4F)cn32)C1 [Example S64, 7′-(3-chloro-2-fluorobenzylcarbamoyl)-cis-3-methoxy-2′-methyl-1′,8′-dioxo-1′,2′,3′,8′-tetrahydrospiro[cyclobutane-1,4′-pyrido[1,2-a]pyrazin]-9′-yl acetate] | 2.8 nM
6 | CCC(=O)Oc1c2n(cc(C(=O)NCc3cccc(Cl)c3F)c1=O)[C@]1(CN(C)C2=O)C[C@H](OC)C1 [Example S65, 7′-(3-chloro-2-fluorobenzylcarbamoyl)-cis-3-methoxy-2′-methyl-1′,8′-dioxo-1′,2′,3′,8′-tetrahydrospiro[cyclobutane-1,4′-pyrido[1,2-a]pyrazin]-9′-yl propionate] | 1 nM
7 | CO[C@H]1C[C@]2(CN(C)C(=O)c3c(OC(=O)C(C)C)c(=O)c(C(=O)NCc4cccc(Cl)c4F)cn32)C1 [Example S66, 7′-(3-chloro-2-fluorobenzylcarbamoyl)-cis-3-methoxy-2′-methyl-1′,8′-dioxo-1′,2′,3′,8′-tetrahydrospiro[cyclobutane-1,4′-pyrido[1,2-a]pyrazin]-9′-yl isobutyrate] | 0.9 nM
8 | CCC(=O)Oc1c2n(cc(C(=O)NCc3cccc(Cl)c3F)c1=O)[C@]1(CN(C)C2=O)C[C@H](COC)C1 [Example S67, 7′-(3-chloro-2-fluorobenzylcarbamoyl)-cis-3-(methoxymethyl)-2′-methyl-1′,8′-dioxo-1′,2′,3′,8′-tetrahydrospiro[cyclobutane-1,4′-pyrido[1,2-a]pyrazin]-9′-yl propionate] | 0.9 nM
9 | COC[C@H]1C[C@]2(CN(C)C(=O)c3c(OC(=O)C(C)C)c(=O)c(C(=O)NCc4cccc(Cl)c4F)cn32)C1 [Example S68, 7′-(3-chloro-2-fluorobenzylcarbamoyl)-cis-3-(methoxymethyl)-2′-methyl-1′,8′-dioxo-1′,2′,3′,8′-tetrahydrospiro[cyclobutane-1,4′-pyrido[1,2-a]pyrazin]-9′-yl isobutyrate] | 0.7 nM
10 | CCCCCCCCCCCCCCCC(=O)Oc1c2n(cc(C(=O)NCc3cccc(Cl)c3F)c1=O)[C@]1(CN(C)C2=O)C[C@H](COC)C1 [Example S69, 7′-(3-chloro-2-fluorobenzylcarbamoyl)-cis-3-(methoxymethyl)-2′-methyl-1′,8′-dioxo-1′,2′,3′,8′-tetrahydrospiro[cyclobutane-1,4′-pyrido[1,2-a]pyrazin]-9′-yl palmitate] | 1 nM
11 | COC[C@H]1C[C@]2(CN(C)C(=O)c3c(OC(=O)c4ccccc4)c(=O)c(C(=O)NCc4cccc(Cl)c4F)cn32)C1 [Example S70, 7′-(3-chloro-2-fluorobenzylcarbamoyl)-cis-3-(methoxymethyl)-2′-methyl-1′,8′-dioxo-1′,2′,3′,8′-tetrahydrospiro[cyclobutane-1,4′-pyrido[1,2-a]pyrazin]-9′-yl benzoate] | 1.4 nM
12 | COC[C@H]1C[C@]2(CN(C)C(=O)c3c(OC(=O)C(C)(C)C)c(=O)c(C(=O)NCc4cccc(Cl)c4F)cn32)C1 [Example S71, 7′-(3-chloro-2-fluorobenzylcarbamoyl)-cis-3-(methoxymethyl)-2′-methyl-1′,8′-dioxo-1′,2′,3′,8′-tetrahydrospiro[cyclobutane-1,4′-pyrido[1,2-a]pyrazin]-9′-yl pivalate] | 1.9 nM
13 | COC[C@H]1C[C@]2(CN(C)C(=O)c3c(OC(=O)c4ccc(C)cc4)c(=O)c(C(=O)NCc4cccc(Cl)c4F)cn32)C1 [Example S72, 7′-(3-chloro-2-fluorobenzylcarbamoyl)-cis-3-(methoxymethyl)-2′-methyl-1′,8′-dioxo-1′,2′,3′,8′-tetrahydrospiro[cyclobutane-1,4′-pyrido[1,2-a]pyrazin]-9′-yl 4-methylbenzoate] | 0.9 nM
14 | COC[C@H]1C[C@]2(CN(C)C(=O)c3c(OC(=O)CN(C)C)c(=O)c(C(=O)NCc4cccc(Cl)c4F)cn32)C1 [Example S73, 7′-(3-chloro-2-fluorobenzylcarbamoyl)-cis-3-(methoxymethyl)-2′-methyl-1′,8′-dioxo-1′,2′,3′,8′-tetrahydrospiro[cyclobutane-1,4′-pyrido[1,2-a]pyrazin]-9′-yl 2-(dimethylamino)acetate dihydrochloride] | 1.1 nM
15 | CCN1C[C@@]2(C[C@@H]2COC)n2cc(C(=O)NCc3ccc(F)cc3F)c(=O)c(O)c2C1=O [Example T2, (1S,2S)-N-(2,4-difluroobenzyl)-2′-ethyl-9′-hydroxy-2-(methoxymethyl)-1′,8′-dioxo-1′,2′,3′,8′-tetrahydrospiro[cyclopropane-1,4′-pyrido[1,2-a]pyrazine]-7′-carboxamide hydrochloride] | 4.2 nM

Same assay, conditions: Human immunodeficiency virus 1, NL43, MT4, 120 h, read-out: antiviral activity (EC50), MT-4 cells infected with HIV-1 NL4-3 strain (MOI 0.05), cultured 5 days, Cell Titer-Glo

Row | SMILES | EC50
16 | CCN1C[C@@]2(C[C@@H]2CO)n2cc(C(=O)NCc3ccc(F)cc3F)c(=O)c(O)c2C1=O [Example T1, (1S,2S)-N-(2,4-difluorobenzyl)-2′-ethyl-9′-hydroxy-2-(hydroxymethyl)-1′,8′-dioxo-1′,2′,3′,8′-tetrahydrospiro[cyclopropane-1,4′-pyrido[1,2-a]pyrazine]-7′-carboxamide hydrochloride] | 18 nM
17 | COC[C@H]1C[C@@]12CN(C)C(=O)c1c(O)c(=O)c(C(=O)NCc3ccc(F)cc3F)cn12 [Example T3, (1S,2S)-N-(2,4-difluorobenzyl)-9′-hydroxy-2-(methoxymethyl)-2′-methyl-1′,8′-dioxo-1′,2′,3′,8′-tetrahydrospiro[cyclopropane-1,4′-pyrido[1,2-a]pyrazine]-7′-carboxamide hydrochloride] | 4.5 nM
18 | CN1C[C@@]2(C[C@@H]2CO)n2cc(C(=O)NCc3ccc(F)cc3F)c(=O)c(O)c2C1=O [Example T4, (1S,2S)-N-(2,4-difluorobenzyl)-9′-hydroxy-2-(hydroxymethyl)-2′-methyl-1′,8′-dioxo-1′,2′,3′,8′-tetrahydrospiro[cyclopropane-1,4′-pyrido[1,2-a]pyrazine]-7′-carboxamide hydrochloride] | 30 nM

From US10087178B2, “Substituted spiropyrido[1,2-a]pyrazine derivative and medicinal use thereof as HIV integrase inhibitor” (priority 2012, dated 2018)
